Each structure is given as a SMILES string. ≈ marks a conversion by molar mass, not a printed value.

The test system of data set [1] is C. neoformans strain H99. In words: Murine cryptococcal meningitis model with ABT pretreatment (preliminary experiment). It counts as in vivo, Cryptococcus neoformans. The conditions noted are these: 7 days. The protocol: In a preliminary experiment, the efficacies of APX001, APX2096, and APX2097 were evaluated in the disseminated model of CM (n = 5 mice/cohort). ABT at 100 mg/kg was administered orally to male CD-1 mice 2 h prior to APX compound administration. Mice were injected with 6.9 × 10^4 CFU of C. neoformans strain H99 per mouse via the lateral tail vein at time zero. Treatment with each prodrug was initiated at about 1 h postinfection by i.p. administration and continued daily for 7 days, with 100-mg/kg ABT being administered orally 2 h prior to each APX compound dose.
(§1) ABT at 100 mg/kg was administered orally to male CD-1 mice at 2 h prior to each APX compound dose. Mice were injected with 6.9 × 10^4 CFU of C. neoformans strain H99 per mouse via the lateral tail vein at time zero. Treatment with the APX compound was initiated at about 1 h postinfection by i.p. administration and continued for 7 days, with 100-mg/kg ABT being administered orally 2 h prior to each APX compound dose. […] Fungal burden data were log10 transformed and evaluated using Kruskal-Wallis tests with Dunn's multiple-comparison test for post hoc analysis (Prism software, v5; GraphPad Software, Inc., San Diego, CA). A P value of ≤0.05 was considered statistically significant (*, P ≤ 0.05; **, P ≤ 0.01). The 95% confidence interval (CI) is presented.
(§2) C. neoformans strain H99 was grown in yeast extract-peptone-dextrose broth at 30°C on a shaker (220 rpm) for 24 h, centrifuged (1,980 relative centrifugal force), and washed twice in phosphate-buffered saline (PBS), resuspended in PBS, and quantified by hemacytometric count. Male CD-1 mice were infected with ∼5 × 10^4 CFU per mouse via lateral tail vein injection of 100 μl. Mice were weighed, and treatment was begun within 1 h after infection. Treatments were administered daily for 7 days. Mice were weighed daily and observed for acute and chronic adverse symptoms. Mice were sacrificed on day 8, and the brain and left lung were homogenized and cultured for quantitative determination of the tissue burden (number of CFU per gram of tissue). Tissues were homogenized for 25 s in 1 ml phosphate-buffered saline using two 6.5-mm steel beads and a Mini-Beadbeater 16 apparatus (Biospec Products, Inc., Bartlesville, OK) and serially diluted in 10-fold steps. Aliquots (100 μl) of homogenate were plated and incubated for 3 to 7 days at 37°C. Fungal burden data were log10 transformed and evaluated using Kruskal-Wallis tests with Dunn's multiple-comparison test for post hoc analysis (Prism software, v5; GraphPad Software, Inc., San Diego, CA). A P value of ≤0.05 was considered statistically significant.

Data set [2] is described as follows: Acute toxicity and survival observed in the CM model with ABT. It counts as in vivo, mouse. To be noted: i.p. dosing + ABT; dose then reduced to 60 mg/kg for surviving mice. The protocol: as §1, §2
In data set [3] the test system is C. neoformans strain H99. In words: Murine cryptococcal meningitis model with ABT, dose-response study. It counts as in vivo, Cryptococcus neoformans. The method, then:
A dose-response study was performed with APX2096 and APX2097 to confirm the observed activity. In this study, QD doses of 7.5, 20, and 60 mg/kg were evaluated in conjunction with the administration of ABT. A 60-mg/kg dose QD without ABT was also evaluated as a control.
FIG 3 Dose-response of APX2096 and APX2097 in a murine model of cryptococcal meningitis in conjunction with ABT administration. ABT at 100 mg/kg was administered orally to male CD-1 mice at 2 h prior to each APX compound dose. Mice were injected with 4.8 × 10^4 CFU C. neoformans strain H99 per mouse via the lateral tail vein at time zero. Treatment with the APX compounds was initiated at 1 h postinfection by i.p. administration and continued for 7 days, with 100-mg/kg ABT being administered orally 2 h prior to each APX compound dose. The correction factors for prodrug potencies versus the potencies of the active moieties were similar enough such that the same factor (1.3) was used for all APX compounds. Fungal burden data were log10 transformed and evaluated using Kruskal-Wallis tests with Dunn's multiple-comparison test for post hoc analysis (Prism software, v5; GraphPad Software, Inc., San Diego, CA). […] A P value of ≤0.05 was considered statistically significant (*, P ≤ 0.05; **, P ≤ 0.01; ***, P ≤ 0.001). The 95% confidence interval (CI) is presented.
as §2

The subject of data set [4] is C. neoformans. Also noted: method as in PMID 15078612. The conditions noted are these: U.S. isolates; cited from earlier work.
Where [5] appears, read: 34 mg/kg QD i.p. + ABT 100 mg/kg p.o.
Setting [6] is: 85 mg/kg QD i.p. + ABT 100 mg/kg p.o.
Setting [7] is: QD doses of 7.5, 20 and 60 mg/kg i.p. + ABT.
The mark [8] stands for this setting: QD doses of 7.5, 20 and 60 mg/kg i.p. + ABT, not significant.

`Nc1c(-c2cc(Cc3ccc(OCc4ccccc4)cc3)no2)ccc[n+]1COP(=O)([O-])O` [APX2097]: in data set [1] (setting [5]), the “reduction in brain fungal burden” value is listed as 1.66 log10 CFU/g and the “reduction in lung fungal burden” value is recorded as 1.07 log10 CFU/g. Further, in data set [1] (setting [6]), the “reduction in brain fungal burden” value is recorded as 2.72 log10 CFU/g and the “reduction in lung fungal burden” value was determined as 3.28 log10 CFU/g. For the same compound, the “Acute toxicity observed (day of treatment)” value in data set [2] is reported as “day 6”. In addition, in data set [3] (60 mg/kg QD i.p. + ABT), the “reduction in brain fungal burden” value came out at 1.45 log10 CFU/g and the “reduction in lung fungal burden” value amounted to 1.55 log10 CFU/g. In data set [3] (setting [7]), the “dose-dependent change in brain fungal burden: increase end of range” value was found to be 0.24 log10 CFU/g and the “dose-dependent change in lung fungal burden: increase end of range” value is reported as 1.20 log10 CFU/g. In data set [3] (setting [8]), the “dose-dependent change in brain fungal burden: reduction end of range” value is given as 1.45 log10 CFU/g and the “dose-dependent change in lung fungal burden: reduction end of range” value is listed as 1.55 log10 CFU/g.

Broadly, the MIC90 is the lowest concentration that inhibits either 90% of growth or 90% of the strains tested, depending on the study. For `Nc1[nH]c(=O)ncc1F` [flucytosine], the MIC90 in data set [4] was 8 µg/mL (≈ 62 µM).

As to `CC(=O)N1CCN(c2ccc(OCC3COC(Cn4ccnc4)(c4ccc(Cl)cc4Cl)O3)cc2)CC1` (centres unmarked) [ketoconazole], the MIC90 in data set [4] was 0.06 µg/mL (≈ 0.113 µM).

On to `CCC(C)n1ncn(-c2ccc(N3CCN(c4ccc(OCC5COC(Cn6cncn6)(c6ccc(Cl)cc6Cl)O5)cc4)CC3)cc2)c1=O` (centres unmarked) [itraconazole], for which the MIC90 in data set [4] was 0.125 µg/mL (≈ 0.177 µM).

Values taken from publication PMC6105804, “In Vitro and In Vivo Evaluation of APX001A/APX001 and Other Gwt1 Inhibitors against Cryptococcus” (Antimicrobial Agents and Chemotherapy, 2018).
